Laboratory results taken from ChEMBL document CHEMBL3244280, “Thiazolinone analogues of indolmycin with antiviral and antibacterial activity” (J Med Chem, 1978).
In brackets after ≈: the same amount, converted by molar mass. Activity calls are given as the source filed them. No cut-off for these calls is given here.

Key:
Streptococcus pyogenes = assay: Antibacterial activity against Streptococcus pyogenes CN10; type: functional
Staphylococcus aureus [1] = assay: Antibacterial activity against Staphylococcus aureus Oxford; type: functional
Influenza A virus [2] = assay: Antiviral activity against influenza A virus NWS/H0N1 infected in BHK cells by agar diffusion assay; type: functional
Influenza A virus [3] = assay: Antiviral activity against influenza A virus NWS/H0N1 infected in BHK cells at 1 mg/ml by agar diffusion assay; type: functional; settings: read-out: IZ
Coxsackievirus B1 [4] = assay: Antiviral activity against Coxsackievirus B1 infected in human HeLa cells at 1 mg/ml by agar diffusion assay; type: functional; settings: Enterovirus B; read-out: IZ
Enterococcus faecalis = assay: Antibacterial activity against Streptococcus faecalis I; type: functional
Bacillus subtilis = assay: Antibacterial activity against Bacillus subtilis; type: functional
[5] = Cytotoxicity against BHK cells; type: cell-based, Mesocricetus auratus; settings: hamster
Coxsackievirus B1 [6] = assay: Antiviral activity against Coxsackievirus B1 infected in human HeLa cells by agar diffusion assay; type: functional
Human alphaherpesvirus 1 = assay: Antiviral activity against Herpes simplex virus 1 infected in chick embryo fibroblasts by plaque reduction assay; type: functional, organism-based
Staphylococcus aureus [7] = assay: Antibacterial activity against Staphylococcus aureus 1517; type: functional
[8] = Cytotoxicity against human HeLa cells by neutral red assay; type: cell-based
Staphylococcus aureus [9] = assay: Antibacterial activity against Staphylococcus aureus Russel; type: functional

Row | Compound | MIC (Streptococcus pyogenes) [µg/mL] | MIC (Staphylococcus aureus [1]) [µg/mL] | PDD50 (Influenza A virus [2]) [µg/mL] | zone of inhibition at 1000 µg/mL (Influenza A virus [3]) [mm] | zone of inhibition at 1000 µg/mL (Coxsackievirus B1 [4]) [mm] | MIC (Enterococcus faecalis) [µg/mL] | MIC (Bacillus subtilis) [µg/mL] | MCC [5] [µg/mL] | PDD50 (Coxsackievirus B1 [6]) [µg/mL] | Activity (Human alphaherpesvirus 1) | MIC (Staphylococcus aureus [7]) [µg/mL] | MCC [8] [µg/mL] | MIC (Staphylococcus aureus [9]) [µg/mL]
1 | CNC1=NC(=O)C(Cc2c[nH]c3ccccc23)S1 (racemic) | 200 (≈ 771 µM) | 20 (≈ 77.1 µM) | 10 | 14 | 9 | 20 (≈ 77.1 µM) | > 200 | 30 | 100 | inactive | 20 (≈ 77.1 µM) | > 100 | 20 (≈ 77.1 µM)
2 | C[C@H](c1c[nH]c2ccccc12)[C@@H]1SC(NCCO)=NC1=O (racemic) | 200 (≈ 659 µM) | 200 (≈ 659 µM) | >30 | 8 | 20 | 200 (≈ 659 µM) | > 200 | 100 | 16 | inactive | 200 (≈ 659 µM) | > 100 | 200 (≈ 659 µM)
3 | CCNC1=NC(=O)[C@H]([C@H](C)c2c[nH]c3ccccc23)S1 (racemic) | 200 (≈ 696 µM) | 20 (≈ 69.6 µM) | 5 | 34 | 16 | 20 (≈ 69.6 µM) | 200 (≈ 696 µM) | 10 | 10 | inactive | 20 (≈ 69.6 µM) | > 100 | 20 (≈ 69.6 µM)
